Legend:
[1] = Encapsulation efficiency of lipid nanoparticles (Quant-it Ribogreen RNA quantification assay); type: physicochemical; details: LNP encapsulating hEPO mRNA
Summary of the method: (§1)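 Ribogreen fluorescence quantifies encapsulated mRNA and backscatter (173°) DLS sizes the particles. These are microfluidically mixed four-component LNPs in DPBS after dialysis.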

[2] = Apparent pKa of LNP formulations (TNS fluorescence assay); details: LNP cationic lipid/DSPC/cholesterol/DMG-PEG 50/10/38.5/1.5 mol %
Procedure: The apparent pKa of each formulation was determined using an assay based on fluorescence of 2-(p-toluidino)-6-napthalene sulfonic acid (TNS). LNP formulations comprising of cationic lipid/DSPC/cholesterol/DMG-PEG (50/10/38.5/1.5 mol %) in PBS were prepared as described above. TNS was prepared as a 300 uM stock solution in distilled water. LNP formulations were diluted to 0.1 mg/ml total lipid in 3 mL of buffered solutions containing 50 mM sodium citrate, 50 mM sodium phosphate, 50 mM sodium borate, and 30 mM sodium chloride where the pH ranged from 3 to 9. An aliquot of the TNS solution was added to give a final concentration of 0.1 mg/ml and following vortex mixing fluorescence intensity was measured at room temperature in a Molecular Devices Spectramax iD3 spectrometer using excitation and mission wavelengths of 325 nm and 435 nm. A sigmoidal best fit analysis was applied to the fluorescence data and the pKa value was measured as the pH giving rise to half-maximal fluorescent intensity.

[3] = Lipid nanoparticle size by dynamic light scattering (Malvern Zetasizer Nano ZS); type: physicochemical; details: LNP: cationic lipid/DSPC/cholesterol/PEG-lipid 50:10:38.5:1.5, hEPO mRNA
Summary of the method: as §1

[4] = test system: human erythropoietin (hEPO) mRNA; assay: Animal study: hEPO expression after tail vein injection of LNPs encapsulating hEPO mRNA (serum ELISA); type: in vivo; details: hEPO level, female ICR mice, 0.5 mg/kg, 6 hours post administration; for Expression at 6 h: Table 2; for Expression at 6 h (μg/ml): class symbols, Table 3
Summary of the method: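 Female ICR mice (6-8 weeks) received LNPs carrying hEPO mRNA by tail vein injection at 0.5 mg/kg, with MC3 LNPs dosed the same way as positive control. Blood was drawn at set times (e.g., 6 h) and serum separated. hEPO was quantified by ELISA and reported as μg/ml.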

Structure (SMILES)	Encapsulation Efficiency ([1]; Table 2) [%]	Apparant Pka ([2]; Table 2)	polydispersity ([3]; Table 2)	size nm ([3]; Table 2) [nm]	Expression at 6 h [4] [µg/mL]	Encapsulation Efficiency ([1]; Table 3) [%]	Apparant Pka ([2]; Table 3)	polydispersity ([3]; Table 3)	size nm ([3]; Table 3) [nm]	Expression at 6 h (μg/ml) [4]
CCCCCCCCC(CCCCCC)COC(=O)CCCCCN(CCCCCC(=O)OCC(CCCCCC)CCCCCCCC)CCN(CCO)CCCC (stereo not shown) [Compound C]	96.9	6.46	0.061	65.0	2.95					
CCCCCCCCC(CCCCCC)COC(=O)CCCCCN(CCCCCC(=O)OCC(CCCCCC)CCCCCCCC)CCNCCO (stereo not shown) [Compound A]	100.0	6.96	0.108	58.5	0.01					
CCCCCCCCC(CCCCCC)CC(=O)NCCCCCN(CCCCCNC(=O)CC(CCCCCC)CCCCCCCC)CCN(CCO)C1CCCCC1 (stereo not shown) [Compound 115]						98.2	6.732	0.117	65.12	A (≥2)
CCCCCCCCC(CCCCCC)COC(=O)CCCCCN(CCCCCC(=O)OCC(CCCCCC)CCCCCCCC)CCN(CCCO)C1CCCCC1 (stereo not shown) [Compound 9]	93.3	6.01	0.106	77.6	0.86					
CCCCCCCC(CCCCCCC)COC(=O)CCCCCN(CCCCCC(=O)OCC(CCCCCCC)CCCCCCC)CCN(CCO)C1CCC1 [Compound 49]						94.1	6.249	0.075	65.13	A (≥2)
CCCCCCCCC(CCCCCC)COC(=O)CCCCCCN(CCCCCCC(=O)OCC(CCCCCC)CCCCCCCC)CCN(CCO)C1CCC1 (stereo not shown) [Compound 37]						97.0	6.205	0.034	84.26	A (≥2)
CCCCCCCCC(CCCCCC)COC(=O)CCCCCN(CCCCCC(=O)OCC(CCCCCC)CCCCCCCC)CCN(CCO)C1CCC(O)CC1 (stereo not shown) [Compound 21]						100.6	7.652	0.077	75.26	D (<0.1)
CCCCC/C=C\CCCC(=O)C(CC/C=C\CCCCC)C(CCC/C=C\CCCCC)OC(=O)CCCCCN(CCCCCC(=O)OCCC/C=C/CCCCC)CCN(CCO)C1CCC1 (stereo not shown) [Compound 101]						85.5	6.071	0.067	72	B (≥1 and <2)
CCCCCCCCC(CCCCCC)COC(=O)NCCCCN(CCCCNC(=O)OCC(CCCCCC)CCCCCCCC)CCN(CCO)C1CCC1 (stereo not shown) [Compound 155]						98.4	6.797	0.035	64.39	B (≥1 and <2)
CCCCCCCCC(CCCCCCCC)CC(=O)NCCCCCN(CCCCCOC(=O)CC(CCCCCCCC)CCCCCCCC)CCN(CCO)C1CCCC1 [Compound 143]						93.2	6.836	0.032	58.61	A (≥2)
CCCCCCCCC(CCCCCC)COC(=O)CCCCCN(CCCCCC(=O)OCC(CCCCCC)CCCCCCCC)CCN(CCCC)C1CCC(O)CC1 (stereo not shown) [Compound 58]						90.7	6.364	0.067	74.68	A (≥2)
